pIC50: −log10 of the molar value. Read-outs that look alike come from different tables or passages of the source.
Experiments:
Assay type in all cases: biochemical
[1] = target: T1, DYRK2 (Homo sapiens, UniProt Q92630); assay: Kinase screen: DYRK2 assay
T1 sequence (Q92630 1-601): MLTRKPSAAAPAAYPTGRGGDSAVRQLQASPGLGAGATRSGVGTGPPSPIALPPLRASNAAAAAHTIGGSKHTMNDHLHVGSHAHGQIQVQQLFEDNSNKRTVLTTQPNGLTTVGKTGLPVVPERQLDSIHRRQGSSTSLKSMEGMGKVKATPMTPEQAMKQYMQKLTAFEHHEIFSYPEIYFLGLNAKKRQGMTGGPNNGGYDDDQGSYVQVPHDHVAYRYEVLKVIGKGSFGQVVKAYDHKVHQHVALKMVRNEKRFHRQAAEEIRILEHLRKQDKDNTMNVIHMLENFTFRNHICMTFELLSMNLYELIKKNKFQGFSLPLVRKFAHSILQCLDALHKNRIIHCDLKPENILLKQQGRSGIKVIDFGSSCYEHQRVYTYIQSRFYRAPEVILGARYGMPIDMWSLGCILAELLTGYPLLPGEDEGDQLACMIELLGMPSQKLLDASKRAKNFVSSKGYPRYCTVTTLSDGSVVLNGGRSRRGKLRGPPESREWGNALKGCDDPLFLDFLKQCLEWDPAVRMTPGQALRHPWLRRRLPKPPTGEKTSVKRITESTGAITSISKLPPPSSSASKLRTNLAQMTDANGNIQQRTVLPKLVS
Procedure: (§1) Generally, the same procedure was used for all assays. Since the total assay volume was 25.5 microliters, 0.5 microliters of inhibitors at 51× assay concentration were added to the plates before any other addition.
(§2) The basic procedure was to add 0.5 microliters inhibitor/control in DMSO to plate. Fifteen microliters of enzyme/substrate/buffer mix were added and incubated for 5 min. Ten microliters MgATP at the relevant concentration were added and incubated for 30 min. The assay was stopped by adding 5 microliters of 3% orthophosphoric acid. The assay was transferred to a p81 filter plate and read in a scintillation counter of 30 sec/well. Note that this assay procedure was not followed for MKK1, which instead involved a two-step assay, and PKC alpha, which required the addition of lipid vesicles.
DYRK2 assay: DYRK2 (5-20 mU of diluted in 50 mM Tris pH7.5, 0.1 mM EGTA) was assayed against Woodtide ([…]) (SEQ ID NO: 29) in a final volume of 25.5 μ1 containing 50 mM Tris pH 7.5, 0.1 mM EGTA, 350 μM substrate peptide, 10 mM Magnesium acetate and 0.05 mM [33P-g-ATP] (50-1000 cpm/pmole) and incubated for 30 min at room temperature. Assays were stopped by addition of 5 μl of 0.5 M (3%) orthophosphoric acid and then harvested onto P81 Unifilter plates with a wash buffer of 50 mM orthophosphoric acid.

[2] = target: p38α MAPK (Homo sapiens, UniProt Q16539); assay: Kinase screen: SAPK 2a/p38 assay
p38α MAPK, sequence (Q16539 whole entry): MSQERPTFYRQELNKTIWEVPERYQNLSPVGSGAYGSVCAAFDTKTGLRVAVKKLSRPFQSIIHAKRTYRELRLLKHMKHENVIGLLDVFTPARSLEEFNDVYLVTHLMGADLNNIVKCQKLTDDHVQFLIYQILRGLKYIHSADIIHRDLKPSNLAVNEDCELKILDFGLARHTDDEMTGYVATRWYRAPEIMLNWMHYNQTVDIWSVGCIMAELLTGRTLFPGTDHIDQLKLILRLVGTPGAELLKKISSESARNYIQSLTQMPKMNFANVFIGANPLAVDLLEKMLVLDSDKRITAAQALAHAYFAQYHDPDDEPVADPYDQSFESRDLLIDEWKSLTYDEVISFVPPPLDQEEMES
Procedure: as §1, §2
SAPK 2a/p38 assay: SAPK 2a/p38 (5-20 mU diluted in 50 mM Tris pH 7.5, 0.1 mM EGTA, 0.1 mM Na3VO4, 0.1% b-mercaptoethanol, 1 mg/ml BSA) was assayed against MBP in a final volume of 25.5 μl containing 25 mM Tris pH 7.5, 0.1 mM EGTA, 0.33 mg/ml MBP, 10 mM magnesium acetate and 0.05 mM [33P-g-ATP] (50-1000 cpm/pmole) and incubated for 30 min at room temperature. Assays were stopped by addition of 5 μl of 0.5 M (3%) orthophosphoric acid and then harvested onto P81 Unifilter plates with a wash buffer of 50 mM orthophosphoric acid.

[3] = target: T2, CDK9/cyclin T complex (Homo sapiens, UniProt P50750); assay: CDK9/cyclin T kinase assay (as for CDK7); settings: for remaining activity at 0.1 µM: 100 nM, mean of three (standard deviation), read-out: CDK9 % remaining kinase activity after incubation with 100 nM of compound; for pIC50: Table 7, mean of three experiments, read-out: CDK9 kinase inhibition in vitro (IC50)
T2 construct: purchased Proqinase GmbH, Germany
T2 sequence (P50750 whole entry): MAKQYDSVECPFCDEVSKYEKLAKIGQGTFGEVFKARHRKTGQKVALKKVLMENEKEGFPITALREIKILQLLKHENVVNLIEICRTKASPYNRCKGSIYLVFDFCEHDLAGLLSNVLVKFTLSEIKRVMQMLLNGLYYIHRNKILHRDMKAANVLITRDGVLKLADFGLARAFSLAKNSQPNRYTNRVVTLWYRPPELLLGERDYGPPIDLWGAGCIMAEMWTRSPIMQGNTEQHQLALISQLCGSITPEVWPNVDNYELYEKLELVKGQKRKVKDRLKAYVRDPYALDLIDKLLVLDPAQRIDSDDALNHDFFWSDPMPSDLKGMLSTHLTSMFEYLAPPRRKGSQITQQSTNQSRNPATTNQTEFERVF
T2 sequence (O60563 whole entry partner): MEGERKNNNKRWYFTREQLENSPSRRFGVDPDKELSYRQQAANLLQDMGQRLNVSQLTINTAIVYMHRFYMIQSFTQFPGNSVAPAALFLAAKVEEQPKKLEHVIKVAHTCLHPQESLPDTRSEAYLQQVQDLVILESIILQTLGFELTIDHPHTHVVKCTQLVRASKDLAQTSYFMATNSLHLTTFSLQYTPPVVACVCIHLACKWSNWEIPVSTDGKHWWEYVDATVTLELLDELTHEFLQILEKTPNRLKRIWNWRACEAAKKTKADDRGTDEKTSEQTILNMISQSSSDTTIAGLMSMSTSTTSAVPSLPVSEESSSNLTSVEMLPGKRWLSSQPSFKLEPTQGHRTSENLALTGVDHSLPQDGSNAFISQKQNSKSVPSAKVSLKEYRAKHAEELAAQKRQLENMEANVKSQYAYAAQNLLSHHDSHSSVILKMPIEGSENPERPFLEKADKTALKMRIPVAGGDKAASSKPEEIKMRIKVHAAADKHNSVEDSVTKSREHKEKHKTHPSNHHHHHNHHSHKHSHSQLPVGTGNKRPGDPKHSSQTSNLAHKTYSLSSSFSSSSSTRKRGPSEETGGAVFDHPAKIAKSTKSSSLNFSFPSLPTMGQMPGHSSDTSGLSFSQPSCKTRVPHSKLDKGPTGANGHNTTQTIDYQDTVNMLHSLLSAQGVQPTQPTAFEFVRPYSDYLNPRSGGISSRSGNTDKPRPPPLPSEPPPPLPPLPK
Summary of the method: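 Run as the CDK7 protocol with 50 ng CDK2/cyclin A or 100 ng CDK9/cyclin T; compound 30 min at 30 °C, then 2 μM ATP final for 20 min at 30 °C. ATP depletion by luciferase luminescence (PKLight), triplicate, normalised to no-enzyme and enzyme controls.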

[4] = target: CSK (Homo sapiens, UniProt P41240); assay: Kinase screen: CSK assay
CSK, sequence (P41240 whole entry, species assumed): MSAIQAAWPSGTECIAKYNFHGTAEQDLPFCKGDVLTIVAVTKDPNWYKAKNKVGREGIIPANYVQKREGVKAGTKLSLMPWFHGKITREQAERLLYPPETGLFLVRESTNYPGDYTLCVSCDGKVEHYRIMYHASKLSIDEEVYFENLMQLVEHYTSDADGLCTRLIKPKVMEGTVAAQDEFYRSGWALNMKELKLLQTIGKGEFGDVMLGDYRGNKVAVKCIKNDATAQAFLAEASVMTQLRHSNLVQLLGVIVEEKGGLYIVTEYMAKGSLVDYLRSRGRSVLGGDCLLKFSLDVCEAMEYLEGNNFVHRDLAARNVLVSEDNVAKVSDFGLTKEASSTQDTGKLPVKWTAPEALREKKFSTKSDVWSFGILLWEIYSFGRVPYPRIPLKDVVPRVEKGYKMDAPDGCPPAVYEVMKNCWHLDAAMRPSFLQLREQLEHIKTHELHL
Procedure: as §1, §2
(500-1000 cpm/pmole) and incubated for 30 min at room temperature Assays were stopped by addition of 5 μl of 0.5 M (3%) orthophosphoric acid and then harvested onto P81 Unifilter plates with a wash buffer of 50 mM orthophosphoric acid.

[5] = target: EFK2 (Homo sapiens, UniProt O00418); assay: Kinase screen: EF2K assay
Procedure: as §1, §2
EF2K assay: EF2K (5-20 mU diluted in 50 mM Hepes pH 6.6, 0.1% b-mercaptoethanol, 1 mg/ml BSA) was assayed against a substrate peptide ([…]) (SEQ ID NO: 27) in a final volume of 25.5 μl containing 50 mM Hepes pH 6.6, 0.2 mM CaCl2, 0.3 μM Calmodulin, 0.05% b-mercaptoethanol, 300 μM substrate peptide, 10 mM magnesium acetate and 0.005 mM [33P-g-ATP] (50-1000 cpm/pmole) and incubated for 30 min at room temperature. Assays were stopped by addition of 5 μl of 0.5 M (3%) orthophosphoric acid and then harvested onto P81 Unifilter plates with a wash buffer of 50 mM orthophosphoric acid.

[6] = 10 micromolar compound, read-out: mean activity remaining (as a percentage of the original activity), DYRK 2
[7] = 10 micromolar compound, read-out: mean activity remaining (as a percentage of the original activity), p38a2 MAPK
[8] = 10 micromolar compound, read-out: mean activity remaining (as a percentage of the original activity), CSK
[9] = 10 micromolar compound, read-out: mean activity remaining (as a percentage of the original activity), EFK2

Structure (SMILES)	remaining activity at 10 µM [1, 6]	remaining activity at 10 µM [2, 7]	remaining activity at 0.1 µM [3]	pIC50 [3]	remaining activity at 10 µM [4, 8]	remaining activity at 10 µM [5, 9]	mean activity remaining (as a percentage of the original activity), DYRK 2 ([1]; 10 micromolar compound)	mean activity remaining (as a percentage of the original activity), p38a2 MAPK ([2]; 10 micromolar compound)	mean activity remaining (as a percentage of the original activity), CSK ([4]; 10 micromolar compound)	mean activity remaining (as a percentage of the original activity), EFK2 ([5]; 10 micromolar compound)	remaining activity at 10 µM ([1]; DYRK2, 10 μM, read-out: Mean Remaining Enzyme Activity (%))	remaining activity at 10 µM ([2]; p38α MAPK, 10 μM, read-out: Mean Remaining Enzyme Activity (%))	remaining activity at 10 µM ([4]; CSK, 10 μM, read-out: Mean Remaining Enzyme Activity (%))	remaining activity at 10 µM ([5]; EFK2, 10 μM, read-out: Mean Remaining Enzyme Activity (%))
CC[C@H](CO)Nc1cc(NCc2ccccc2)n2ncc(C(C)C)c2n1 [ICEC0067]	90%	99%	85%	7.00	77%	95%	–	–	–	–	–	–	–	–
CC(C)c1cnn2c(NCc3ccccc3F)cc(NCCCCCN)nc12 [ICEC-0232]	–	–	–	–	–	–	68%	86%	78%	98%	–	–	–	–
CC(C)c1cnn2c(NCc3ccccc3)cc(NCCCCCCCN)nc12 [BS-181]	–	–	–	–	–	–	–	–	–	–	94%	95%	89%	119%
CC(C)c1cnn2c(NCc3ccccc3)cc(N[C@@H](CO)[C@H](O)CO)nc12 [ICEC0318, (3S)-3-(7-(Benzylamino)-3-isopropylpyrazolo[1,5-a]pyrimidin-5-ylamino)butane-1,2,4-triol]	75%	98%	56%	–	77%	92%	–	–	–	–	–	–	–	–
C=C[C@H](CO)Nc1cc(NCc2ccccc2)n2ncc(C(C)C)c2n1 [ICEC0065]	90%	94%	100%	< 6.00	77%	97%	–	–	–	–	–	–	–	–
